Key:
Experiment in all cases: IO staining of colonies of beta-D-galactosidase positive/negative bacteria (Table IVb)
Assay type in all cases: cell-based
[1] = tested on: Escherichia coli 61; settings: Escherichia coli strain 61, b-gal +; 24 h on Nutrient Agar, 150 mg/l indicator, 100 mg/l IPTG; on C: Color of colonies: key: −: absent; +/−: weak; +: strong; ++: very strong; on G: Growth of colonies: key: −: absent; +/−: weak; +: strong; ++: very strong
[2] = tested on: Staphylococcus saprophyticus 273; settings: Staphylococcus saprophyticus strain 273, b-gal +; 24 h on Nutrient Agar, 150 mg/l indicator, 100 mg/l IPTG; on G: Growth of colonies: key: −: absent; +/−: weak; +: strong; ++: very strong
[3] = tested on: Bacillus subtilis 65; settings: Bacillus subtilis strain 65, b-gal −; 24 h on Nutrient Agar, 150 mg/l indicator, 100 mg/l IPTG; on C: Color of colonies: key: −: absent; +/−: weak; +: strong; ++: very strong; on F: Fluorescence of colonies: key: −: absent; +/−: weak; +: strong; ++: very strong
[4] = tested on: Citrobacter freundii 181; settings: Citrobacter freundii strain 181, b-gal +; 24 h on Nutrient Agar, 150 mg/l indicator, 100 mg/l IPTG; on C: Color of colonies: key: −: absent; +/−: weak; +: strong; ++: very strong; on G: Growth of colonies: key: −: absent; +/−: weak; +: strong; ++: very strong
[5] = tested on: Streptococcus agalactiae 195; settings: Streptococcus agalactiae strain 195, b-gal −; 24 h on Nutrient Agar, 150 mg/l indicator, 100 mg/l IPTG; on C: Color of colonies: key: −: absent; +/−: weak; +: strong; ++: very strong; on F: Fluorescence of colonies: key: −: absent; +/−: weak; +: strong; ++: very strong
[6] = tested on: Salmonella illa 73; settings: Salmonella illa strain 73, b-gal +; 24 h on Nutrient Agar, 150 mg/l indicator, 100 mg/l IPTG; further: key: −: absent; +/−: weak; +: strong; ++: very strong
[7] = tested on: Escherichia coli (O157:H7) 60; settings: Escherichia coli (O157:H7) strain 60, b-gal +; 24 h on Nutrient Agar, 150 mg/l indicator, 100 mg/l IPTG
[8] = tested on: Klebsiella pneumoniae 164; settings: Klebsiella pneumoniae strain 164, b-gal +; 24 h on Nutrient Agar, 150 mg/l indicator, 100 mg/l IPTG; on C: Color of colonies: key: −: absent; +/−: weak; +: strong; ++: very strong; on G: Growth of colonies: key: −: absent; +/−: weak; +: strong; ++: very strong
[9] = tested on: Salmonella enteritidis 43; settings: Salmonella enteritidis strain 43, b-gal −; 24 h on Nutrient Agar, 150 mg/l indicator, 100 mg/l IPTG; further: key: −: absent; +/−: weak; +: strong; ++: very strong
[10] = tested on: Salmonella bongori 81; settings: Salmonella bongori strain 81, b-gal +; 24 h on Nutrient Agar, 150 mg/l indicator, 100 mg/l IPTG; on C: Color of colonies: key: −: absent; +/−: weak/variable; +: strong; on G: Growth of colonies: key: −: absent; +/−: weak; +: strong; ++: very strong
[11] = tested on: Shigella sonnei 133; settings: Shigella sonnei strain 133, b-gal +/−; 24 h on Nutrient Agar, 150 mg/l indicator, 100 mg/l IPTG; on C: Color of colonies: key: −: absent; +/−: weak; +: strong; ++: very strong; on G: Growth of colonies: key: −: absent; +/−: weak; +: strong; ++: very strong
[12] = tested on: Yersinia enterocolitica 175; settings: Yersinia enterocolitica strain 175, b-gal +/−; 24 h on Nutrient Agar, 150 mg/l indicator, 100 mg/l IPTG; on G: Growth of colonies: key: −: absent; +/−: weak; +: strong; ++: very strong
[13] = tested on: Shigella boydii 135; settings: Shigella boydii strain 135, b-gal −; 24 h on Nutrient Agar, 150 mg/l indicator, 100 mg/l IPTG; further: key: −: absent; +/−: weak; +: strong; ++: very strong
[14] = tested on: Serratia marcescens 40; settings: Serratia marcescens strain 40, b-gal +; 24 h on Nutrient Agar, 150 mg/l indicator, 100 mg/l IPTG; on G: Growth of colonies: key: −: absent; +/−: weak; +: strong; ++: very strong
[15] = tested on: Staphylococcus intermedius 31; settings: Staphylococcus intermedius strain 31, b-gal +; 24 h on Nutrient Agar, 150 mg/l indicator, 100 mg/l IPTG
[16] = tested on: Staphylococcus aureus 2; settings: Staphylococcus aureus strain 2, b-gal −, 24 h on Nutrient Agar, 150 mg/l indicator, 100 mg/l IPTG; on F: Fluorescence of colonies: key: −: absent; +/−: weak; +: strong; ++: very strong
[17] = tested on: Enterobacter aerogenes 242; settings: Enterobacter aerogenes strain 242, b-gal +; 24 h on Nutrient Agar, 150 mg/l indicator, 100 mg/l IPTG; on C: Color of colonies: key: −: absent; +/−: weak; +: strong; ++: very strong; on G: Growth of colonies: key: −: absent; +/−: weak; +: strong; ++: very strong
[18] = tested on: Listeria monocytogenes (4b) 290; settings: Listeria monocytogenes (4b) strain 290, b-gal −; 24 h on Nutrient Agar, 150 mg/l indicator, 100 mg/l IPTG; on C: Color of colonies: key: −: absent; +/−: weak; +: strong; ++: very strong; on F: Fluorescence of colonies: key: −: absent; +/−: weak; +: strong; ++: very strong
[19] = tested on: Aeromonas hydrophila 292; settings: Aeromonas hydrophila strain 292, b-gal +; 24 h on Nutrient Agar, 150 mg/l indicator, 100 mg/l IPTG; on G: Growth of colonies: key: −: absent; +/−: weak; +: strong; ++: very strong
[20] = tested on: Shigella dysenteriae Serovar 1 131; settings: Shigella dysenteriae Serovar 1 strain 131, b-gal +/−; 24 h on Nutrient Agar, 150 mg/l indicator, 100 mg/l IPTG
[21] = tested on: Enterobacter cloacae 245; settings: Enterobacter cloacae strain 245, b-gal +; 24 h on Nutrient Agar, 150 mg/l indicator, 100 mg/l IPTG; on C: Color of colonies: key: −: absent; +/−: weak; +: strong; ++: very strong; on G: Growth of colonies: key: −: absent; +/−: weak; +: strong; ++: very strong

In the case of COc1ccc(C(=O)c2ccccc2-n2cc(O[C@@H]3O[C@H](CO)[C@H](O)[C@H](O)[C@H]3O)c3c(Cl)c(Br)ccc32)c(OC)c1 [Indicator I28a, 5-Bromo-4-chloro-1-[2-(2,4-dimethoxybenzoyl)phenyl]-1H-indol-3-yl-beta-D-galactopyranoside], the “C: Color of colonies” value [1] is reported as “+”, the “F: Fluorescence of colonies” value [1] is reported as “+/−” and the “G: Growth of colonies” value [1] is reported as “+”. For the same compound, the “C: Color of colonies” value [2] was “+/−”, the “F: Fluorescence of colonies” value [2] was “−” and the “G: Growth of colonies” value [2] was “+”. The “C: Color of colonies” value [3] was “−”, the “F: Fluorescence of colonies” value [3] was “−” and the “G: Growth of colonies” value [3] was “+/−”. The “C: Color of colonies” value [4] was “+”, the “F: Fluorescence of colonies” value [4] was “+/−” and the “G: Growth of colonies” value [4] was “+”. The “C: Color of colonies” value [5] was “−”, the “F: Fluorescence of colonies” value [5] was “−” and the “G: Growth of colonies” value [5] was “+/−”. For the same compound, the “C: Color of colonies” value [6] was “−”, the “F: Fluorescence of colonies” value [6] was “−” and the “G: Growth of colonies” value [6] was “+”. For the same compound, the “C: Color of colonies” value [7] was “+”, the “F: Fluorescence of colonies” value [7] was “+/−” and the “G: Growth of colonies” value [7] was “+”. For the same compound, the “C: Color of colonies” value [8] was “+”, the “F: Fluorescence of colonies” value [8] was “+/−” and the “G: Growth of colonies” value [8] was “+”. For the same compound, the “C: Color of colonies” value [9] was “−”, the “F: Fluorescence of colonies” value [9] was “−” and the “G: Growth of colonies” value [9] was “+”. The “C: Color of colonies” value [10] was “+/−”, the “F: Fluorescence of colonies” value [10] was “−” and the “G: Growth of colonies” value [10] was “+”. For the same compound, the “C: Color of colonies” value [11] was “+”, the “F: Fluorescence of colonies” value [11] was “+/−” and the “G: Growth of colonies” value [11] was “+”. The “C: Color of colonies” value [12] was “−”, the “F: Fluorescence of colonies” value [12] was “−” and the “G: Growth of colonies” value [12] was “+”. The “C: Color of colonies” value [13] was “−”, the “F: Fluorescence of colonies” value [13] was “−” and the “G: Growth of colonies” value [13] was “+”. For the same compound, the “C: Color of colonies” value [14] was “+/−”, the “F: Fluorescence of colonies” value [14] was “−” and the “G: Growth of colonies” value [14] was “+”. For the same compound, the “C: Color of colonies” value [15] was “+”, the “F: Fluorescence of colonies” value [15] was “+/−” and the “G: Growth of colonies” value [15] was “+”. For the same compound, the “F: Fluorescence of colonies” value [16] was “−”, the “G: Growth of colonies” value [16] was “+/−” and the “C: Color of colonies” value ([16]; footnote 2: S. aureus natural color) was “−”. For the same compound, the “C: Color of colonies” value [17] was “+”, the “F: Fluorescence of colonies” value [17] was “+/−” and the “G: Growth of colonies” value [17] was “+”. The “C: Color of colonies” value [18] was “−”, the “F: Fluorescence of colonies” value [18] was “−” and the “G: Growth of colonies” value [18] was “+/−”. The “C: Color of colonies” value [19] was “+/−”, the “F: Fluorescence of colonies” value [19] was “−” and the “G: Growth of colonies” value [19] was “+”. The “C: Color of colonies” value [20] was “−”, the “F: Fluorescence of colonies” value [20] was “−” and the “G: Growth of colonies” value [20] was “+”. For the same compound, the “C: Color of colonies” value [21] was “+”, the “F: Fluorescence of colonies” value [21] was “+/−” and the “G: Growth of colonies” value [21] was “+”.
